Here are results for 30 compounds from patent US9624209B2, “Substituted phenylureas and phenylamides as vanilloid receptor ligands” (Gruenenthal GmbH, priority 2009, dated 2017).

This assay has as its target T1, vanilloid receptor 1 (VR1/TRPV1 receptor) (Homo sapiens, UniProt Q8NER1).
T1 construct: expressed in transfected cells; host or cells: CHO K1 cells (ECACC), stably transfected
Put plainly: VR1/TRPV1 receptor affinity, capsaicin stimulus (human). The format is cell-based, human being. On the set-up: key to (f) Ki (human being) [nM] Cap: result in words: AG=agonist; pAG=partial agonist; NE=no effect. The following applies: for Ki: Tables 8-12, read-out: (f) Ki (human being) [nM] Cap; for inhibition at 5 µM: Tables 8-12, read-out: (f) Ki (human being) [nM] Cap: inhibition (as a percentage).

T1 sequence (Q8NER1 whole entry): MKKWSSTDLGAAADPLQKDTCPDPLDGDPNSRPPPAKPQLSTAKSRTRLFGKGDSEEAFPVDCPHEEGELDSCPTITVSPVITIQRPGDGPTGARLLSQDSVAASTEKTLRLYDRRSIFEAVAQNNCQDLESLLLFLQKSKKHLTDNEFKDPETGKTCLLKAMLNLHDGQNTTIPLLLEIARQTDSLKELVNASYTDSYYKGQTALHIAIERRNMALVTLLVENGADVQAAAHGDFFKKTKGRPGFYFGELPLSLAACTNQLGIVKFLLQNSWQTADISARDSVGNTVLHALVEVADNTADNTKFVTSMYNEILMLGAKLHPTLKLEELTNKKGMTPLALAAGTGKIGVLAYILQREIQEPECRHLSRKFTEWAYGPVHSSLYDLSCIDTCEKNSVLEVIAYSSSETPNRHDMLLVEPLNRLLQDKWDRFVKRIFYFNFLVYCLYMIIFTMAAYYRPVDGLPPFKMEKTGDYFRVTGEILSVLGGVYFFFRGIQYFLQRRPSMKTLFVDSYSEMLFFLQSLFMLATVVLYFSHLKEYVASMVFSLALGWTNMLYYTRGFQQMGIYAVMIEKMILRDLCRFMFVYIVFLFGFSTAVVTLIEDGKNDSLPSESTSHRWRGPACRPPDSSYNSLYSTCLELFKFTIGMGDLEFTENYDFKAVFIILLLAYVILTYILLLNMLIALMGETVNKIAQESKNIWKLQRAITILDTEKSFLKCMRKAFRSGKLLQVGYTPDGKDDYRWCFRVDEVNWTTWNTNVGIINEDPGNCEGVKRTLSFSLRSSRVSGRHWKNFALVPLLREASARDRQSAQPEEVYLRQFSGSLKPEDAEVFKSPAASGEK

Turning to `CC(C(=O)NCc1cc(C(F)(F)F)nn1-c1cccc(Cl)c1)c1ccc(CN(C)S(C)(=O)=O)c(F)c1` (stereo not drawn) [Example B29, N-[[2-(3-Chlorophenyl)-5-(trifluoromethyl)-2H-pyrazol-3-yl]-methyl]-2-[3-fluoro-4-[(methyl-methylsulfonyl-amino)-methyl]-phenyl]-propionamide], the Ki (in general, the dissociation constant of the complex between target and ligand, obtained from inhibition or displacement) is 59 nM.
In the case of `CC(C(=O)NCc1cc(C(F)(F)F)nn1-c1cccc(Cl)c1)c1ccc(CNS(N)(=O)=O)c(F)c1` (stereo not drawn) [Example B97, N-[[2-(3-Chlorophenyl)-5-(trifluoromethyl)-2H-pyrazol-3-yl]-methyl]-2-[3-fluoro-4-[(sulfamoylamino)-methyl]-phenyl]-propionamide], the Ki is 1 nM.
Take `CC(C(=O)NCc1cc(C2CC2)nn1-c1cccc(Cl)c1)c1ccc(CNS(N)(=O)=O)c(F)c1` (stereo not drawn) [Example B95, N-[[2-(3-Chlorophenyl)-5-cyclopropyl-2H-pyrazol-3-yl]-methyl]-2-[3-fluoro-4-[(sulfamoylamino)-methyl]-phenyl]-propionamide]: the Ki is 22 nM.
The same measure, in the same setting: the same measure for `CC(C(=O)NCc1cc(C(C)(C)C)nn1-c1ccc(F)c(F)c1)c1ccc(CNS(C)(=O)=O)c(F)c1` (stereo not drawn) [Example B10, N-[[5-tert-Butyl-2-(3,4-difluoro-phenyl)-2H-pyrazol-3-yl]-methyl]-2-[3-fluoro-4-(methanesulfonamido-methyl)-phenyl]-propionamide]: 6 nM.
Turning to `CC(C(=O)NCc1cc(C(F)(F)F)nn1-c1cccc(Cl)c1)c1ccc(C(=O)N2CCOCC2)c(F)c1` (stereo not drawn) [Example E16, N-[[2-(3-Chlorophenyl)-5-(trifluoromethyl)-2H-pyrazol-3-yl]-methyl]-2-[3-fluoro-4-(morpholine-4-carbonyl)-phenyl]-propionamide], the inhibition (usually the share of the control response that was lost under treatment) at 5 µM came out at 32%.
Turning to `CC(C)(C)c1cc(CNC(=O)Nc2ccc(CN3CCCC3)c(F)c2)n(-c2cccc(Cl)c2)n1` [Example B101, 1-[[5-tert-Butyl-2-(3-chlorophenyl)-2H-pyrazol-3-yl]-methyl]-3-[3-fluoro-4-(pyrrolidin-1-yl-methyl)-phenyl]-urea], the inhibition at 5 µM was 43%.
With `CC(C(=O)NCc1cc(C(C)(C)C)nn1-c1ccc(F)c(Cl)c1)c1ccc(CS(C)(=O)=O)c(F)c1` (stereo not drawn) [Example D8, N-[[5-tert-Butyl-2-(3-chloro-4-fluoro-phenyl)-2H-pyrazol-3-yl]-methyl]-2-[3-fluoro-4-(methylsulfonyl-methyl)-phenyl]-propionamide], the Ki stood at 48 nM.
Take “4-[1-[[5-tert-Butyl-2-(3-chlorophenyl)-2H-pyrazol-3-yl]-methyl-carbamoyl]-ethyl]-N-phenyl-benzamide [Example E27]”: the Ki is 2 nM.
`CS(=O)(=O)NCc1ccc(CC(=O)NCc2cc(C(F)(F)F)nn2-c2cccc(F)c2)cc1F` [Example B37, 2-[3-Fluoro-4-(methanesulfonamido-methyl)-phenyl]-N-[[2-(3-fluorophenyl)-5-(trifluoromethyl)-2H-pyrazol-3-yl]-methyl]-acetamide]: the Ki came out at 46 nM.
`CC(C(=O)NCc1cc(C(F)(F)F)nn1-c1cccc(Cl)c1)c1ccc(CN(C)C)c(F)c1` (stereo not drawn) [Example B65, N-[[2-(3-Chlorophenyl)-5-(trifluoromethyl)-2H-pyrazol-3-yl]-methyl]-2-[4-(dimethylaminomethyl)-3-fluoro-phenyl]-propionamide]: the inhibition at 5 µM was determined as 36%.
On to `CC(C)(C)c1cc(CNC(=O)Nc2ccc(CNS(N)(=O)=O)c(F)c2)n(-c2cccc(Cl)c2)n1` [Example B46, 1-[[5-tert-Butyl-2-(3-chlorophenyl)-2H-pyrazol-3-yl]-methyl]-3-[3-fluoro-4-[(sulfamoylamino)-methyl]-phenyl]-urea], for which the Ki worked out at 9 nM.
Consider `O=C(NCc1cc(C(F)(F)F)nn1-c1cccc(Cl)c1)Nc1ccc(N2CC(O)C2)c(F)c1` [Example C6, 1-[[2-(3-Chlorophenyl)-5-(trifluoromethyl)-2H-pyrazol-3-yl]-methyl]-3-[3-fluoro-4-(3-hydroxy-azetidin-1-yl)-phenyl]-urea], for which the Ki worked out at 43 nM.
Consider `CCNCc1ccc(NC(=O)NCc2cc(C(F)(F)F)nn2-c2cccc(Cl)c2)cc1F` [Example B24, 1-[[2-(3-Chlorophenyl)-5-(trifluoromethyl)-2H-pyrazol-3-yl]-methyl]-3-[4-(ethylamino-methyl)-3-fluoro-phenyl]-urea], for which the Ki amounted to 55 nM.
For the compound `CCNCc1ccc(NC(=O)NCc2cc(C(C)(C)C)nn2-c2cccc(Cl)c2)cc1F` [Example B25, 1-[[5-tert-Butyl-2-(3-chlorophenyl)-2H-pyrazol-3-yl]-methyl]-3-[4-(ethylamino-methyl)-3-fluoro-phenyl]-urea], the Ki worked out at 45 nM.
As for `Cc1cccc(-n2nc(C(C)(C)C)cc2CNC(=O)Nc2ccc(CNS(C)(=O)=O)cc2)c1` [Example B90, 1-[[5-tert-Butyl-2-(m-tolyl)-2H-pyrazol-3-yl]-methyl]-3-[4-(methanesulfonamido-methyl)-phenyl]-urea], the Ki turned out to be 12 nM.
Consider “4-[[[5-tert-Butyl-2-(3-chlorophenyl)-2H-pyrazol-3-yl]-methyl-carbamoyl]-methyl]-N-(4-fluorophenyl)-benzamide [Example E37]”, for which the Ki was 5 nM.
`CC(C)(C)c1cc(CNC(=O)Nc2ccc(CNS(C)(=O)=O)c(F)c2)n(-c2cccc(F)c2)n1` [Example B50, 1-[[5-tert-Butyl-2-(3-fluorophenyl)-2H-pyrazol-3-yl]-methyl]-3-[3-fluoro-4-(methanesulfonamido-methyl)-phenyl]-urea]: the Ki was 15 nM.
Turning to `CCS(=O)(=O)NCc1ccc(NC(=O)NCc2cc(C(F)(F)F)nn2-c2cccc(C)c2)cc1` [Example B91, 1-[4-[[(Ethylsulfonyl)amino]-methyl]-phenyl]-3-[[2-(m-tolyl)-5-(trifluoromethyl)-2H-pyrazol-3-yl]-methyl]-urea], the inhibition constant (Ki) worked out at 57 nM.
Consider `NS(=O)(=O)NCc1ccc(NC(=O)NCc2cc(C(F)(F)F)nn2-c2ccc(F)c(F)c2)cc1` [Example B57, 1-[[2-(3,4-Difluoro-phenyl)-5-(trifluoromethyl)-2H-pyrazol-3-yl]-methyl]-3-[4-[(sulfamoylamino)-methyl]-phenyl]-urea], for which the Ki turned out to be 58 nM.
On to “4-[1-[[5-tert-Butyl-2-(3-chlorophenyl)-2H-pyrazol-3-yl]-methyl-carbamoyl]-ethyl]-N-(4-chlorophenyl)-benzamide [Example E34]”, for which the Ki came to 0.5 nM.
Turning to `CC(C)(C)c1cc(CNC(=O)Nc2ccc(CNS(N)(=O)=O)cc2)n(-c2ccc(F)c(F)c2)n1` [Example B74, 1-[[5-tert-Butyl-2-(3,4-difluoro-phenyl)-2H-pyrazol-3-yl]-methyl]-3-[4-[(sulfamoylamino)-methyl]-phenyl]-urea], the Ki came out at 37 nM.
On to `CC(C(=O)NCc1cc(C(F)(F)F)nn1-c1cccc(C(F)(F)F)c1)c1ccc(CNS(C)(=O)=O)c(F)c1` (stereo not drawn) [Example B8, 2-[3-Fluoro-4-(methanesulfonamido-methyl)-phenyl]-N-[[5-(trifluoromethyl)-2-[3-(trifluoromethyl)phenyl]-2H-pyrazol-3-yl]-methyl]-propionamide], for which the Ki was 1 nM.
In the case of `NS(=O)(=O)NCc1ccc(NC(=O)NCc2cc(C(F)(F)F)nn2-c2ccc(F)c(F)c2)cc1F` [Example B62, 1-[[2-(3,4-Difluoro-phenyl)-5-(trifluoromethyl)-2H-pyrazol-3-yl]-methyl]-3-[3-fluoro-4-[(sulfamoylamino)-methyl]-phenyl]-urea], the inhibition constant (Ki) was 36 nM.
Consider `CS(=O)(=O)CCc1ccc(NC(=O)NCc2cc(C3CC3)nn2-c2cccc(Cl)c2)cc1F` [Example D26, 1-[[2-(3-Chlorophenyl)-5-cyclopropyl-2H-pyrazol-3-yl]-methyl]-3-[3-fluoro-4-(2-methylsulfonyl-ethyl)-phenyl]-urea], for which the Ki was determined as 42 nM.
Take `CC(C(=O)NCc1cc(C(C)(C)C)nn1-c1cccc(F)c1)c1ccc(CNS(C)(=O)=O)c(F)c1` (stereo not drawn) [Example B9, N-[[5-tert-Butyl-2-(3-fluorophenyl)-2H-pyrazol-3-yl]-methyl]-2-[3-fluoro-4-(methanesulfonamido-methyl)-phenyl]-propionamide]: the Ki is 6 nM.
For `CC(C(=O)NCc1cc(C(C)(C)C)nn1-c1cccc(Cl)c1)c1ccc(C(=O)Nc2ccc(F)cc2)c(F)c1` (stereo not drawn) [Example E44, 4-[1-[[5-tert-Butyl-2-(3-chlorophenyl)-2H-pyrazol-3-yl]-methyl-carbamoyl]-ethyl-]-2-fluoro-N-(4-fluorophenyl)-benzamide], the Ki was 1 nM.
In the case of `COc1cc(C(C)C(=O)NCc2cc(C(F)(F)F)nn2-c2cccc(Cl)c2)ccc1CNS(C)(=O)=O` (stereo not drawn) [Example B76, N-[[2-(3-Chlorophenyl)-5-(trifluoromethyl)-2H-pyrazol-3-yl]-methyl]-2-[4-(methanesulfonamido-methyl)-3-methoxy-phenyl]-propionamide], the Ki turned out to be 12 nM.
As for `CC(C(=O)NCc1cc(C(C)(C)C)nn1-c1cccc(Cl)c1)c1ccc(CO)c(F)c1` (stereo not drawn) [Example A32, N-[[5-tert-Butyl-2-(3-chlorophenyl)-2H-pyrazol-3-yl]-methyl]-2-[3-fluoro-4-(hydroxymethyl)-phenyl]-propionamide], the “(f) Ki (human being) [nM] Cap: result in words” value (Tables 8-12) is given as “AG”.
As to `COc1cc(NC(=O)NCc2cc(C(F)(F)F)nn2-c2cccc(Cl)c2)ccc1CNS(C)(=O)=O` [Example B12, 1-[[2-(3-Chlorophenyl)-5-(trifluoromethyl)-2H-pyrazol-3-yl]-methyl]-3-[4-(methanesulfonamido-methyl)-3-methoxy-phenyl]-urea], the Ki turned out to be 41 nM.
For `CC(C(=O)NCc1cc(C(F)(F)F)nn1-c1cccc(Cl)c1)c1ccc(S(C)(=O)=O)c(F)c1` (stereo not drawn) [Example D2, N-[[2-(3-Chlorophenyl)-5-(trifluoromethyl)-2H-pyrazol-3-yl]-methyl]-2-(3-fluoro-4-methylsulfonyl-phenyl)-propionamide], the Ki came to 73 nM.
